Source: patent publication US20160053226A1, “Method and Medium for Amplifying Neural Precursor Cells” (INSERM (INSTITUT NATIONAL DE LA SANTÉ ET DE LA RECHERCHE …, priority 2013, published 2016)

Legend:
[1] = test system: neural precursors; test: Kinase inhibitor library screening for sustaining neural precursor proliferation (Ki67, EdU incorporation); assay type: cell-based, human; conditions: SA001-derived neural precursors, N2B27 without growth factors, day 7, compared to DMSO-treated cells
Experimental: Cells were fixed with 4% PFA for 15 min at 4° C. then permeabilized using a PBS/0.3% Triton X100 solution, 10 min at RT. Incubation with primary antibodies was performed. AlexaFluor secondary antibodies and DAPI counterstaining were applied for 1 h at room temperature. Detection was performed using a Zeiss Inverted microscope or the Arrayscan automated microscope.
A homogeneous population of neural precursors was produced after conversion of SA001 PSC line into neural cells and further amplification using EFB medium until passage 8. The stable neural precursors were seeded in 384 well-plates using Agilent BRAVO automate in N2B27 without growth factors. Six hours post-seeding, cells were treated with Enzo Life Sciences Kinase inhibitors library (BML-2832), a collection of 80 different kinase inhibitors. Another treatment was performed at day 4 and the percentage of proliferative precursors was quantified at day 7 using Ki67 and EdU incorporation. SOX2 was used as a neural marker.

[2] = test system: neural precursors; test: Terminal differentiation into neurons of amplified neural precursors; assay type: cell-based, human; conditions: amplified for 5 passages, compared to EFB medium
Excerpt: Terminal differentiation into neurons was induced by plating neural precursors on poly-ornithin/laminin at a density of 50,000 cells/cm^2 in N2B27 medium. Medium was changed every 4 days.
We next measured the ability of neural precursors amplified using the PKA inhibitor HA1004 for 5 passages to produce neurons. This was compared to the production of neurons obtained from precursor amplified using EFB medium as a reference.

SMILES	neural precursor self-renewal (percentage of Ki67 positive cells) [1]	ability of amplified neural precursors to produce neurons [2]
CC1CNCCN1S(=O)(=O)c1cccc2cnccc12 (centres unmarked) [H7]	sustained neural precursor self-renewal	–
CNCCNS(=O)(=O)c1cccc2cnccc12 [H8]	sustained neural precursor self-renewal	–
NCCNS(=O)(=O)c1cccc2cnccc12 [H9]	sustained neural precursor self-renewal	–
Cl.N=C(N)NCCNS(=O)(=O)c1cccc2cnccc12 [HA1004, N-(2′-Guanidinoethyl)-5-isoquinolinesulfonamide.HCl]	–	did not impact on their ability to produce neurons
O=S(=O)(c1cccc2cnccc12)N1CCCNCC1 [HA1077]	sustained neural precursor self-renewal	–
